One test concerns adults with AML. Description: Clinical outcome of VTX treated patients, clusters by 44-protein classifier (Example 1). It counts as in vivo, human. The method, then: Reverse Phase Protein Array (RPPA) as described by Tibes et al. 2006 and Kornblau et al. 2011 was performed on leukemia blast enriched fractions prepared from diagnostic samples of 818 adults with AML, of which 143 were treated with venetoclax (VTX) including 33 in combination with high dose Ara-C, 5 with standard dose Ara-C, 50 with hypomethylating agents (HMA), and 13 with HMA and targeted therapy (either CPX-351 liposome, a dual-drug liposomal encapsulation of cytarabine and daunorubicin, or anthracycline). Protein expression levels were evaluated using 390 validated antibodies against total and post translationally modified (phosphorylated, methylated, cleaved) as described by Hoff et al. 2019. proteins and were analyzed in the context of clinical data compiled by retrospective chart review. Pearson correlation was used to identify significant protein-protein correlations. Survival curves were generated by the Kaplan-Meier method and survival data was analyzed by multivariate cox regression model. Protein expression signatures were identified by hierarchical clustering and predictive models of protein classifiers were determined by classification and regression trees (CART) analysis.
We queried the 390 proteins (Table 1) assayed in the 143 VTX treated patients to identify proteins individually prognostic for overall survival (OS) or remission duration (REMDUR) and identified 27 proteins correlated with OS (p<0.01) and 44 proteins correlated with REMDUR (p<0.01). Neither MCL1, BCLXL nor BCL2 expression at diagnosis were prognostic of overall survival (OS) or remission duration (REMDUR).

Another test has as its system MV4-11 VTX-sen cell line. Description: Immunoblot protein expression after VTX treatment, MV4-11 cells. As to conditions: 24 hours post treatment with VTX, identical experimental conditions. It counts as cell-based. On the procedure: Protein expression validation in AML cell lines. MOLM-13 parental and VTX-resistant cells were the kind gift of Dr. Marina Konopleva (MD Anderson Cancer Center; Houston, TX, USA). OCI-AML-3, KG-1, and MV4-11 cells were obtained from the Leukemia Sample Bank (LSB) at MD Anderson. For protein expression comparison in cell lines, immunoblot analysis was performed. Cells were boiled and sonicated in lysis buffer and protein (1.5×10^5 cell equivalents) was subjected to electrophoresis using SDS/PAGE. Immunoblot analysis was performed with antibodies against CBL (BD Transduction Lab), PRKCB.pS660 (Cell Signaling, Beverly, MA), SYK (Santa Cruz, Dallas, TX), PKM2 (Cell Signaling), STAT3.pS727 (Cell Signaling), Beta-Actin (Sigma Aldrich, St. Louis, MO), GADPH (Ambion, Austin, TX) and Alpha-Tubulin (Sigma Aldrich). Signals were detected by using the ProteinSimple FluorChem imaging system and quantified by AlphaView software. Beta-Actin, GAPDH, and Alpha-Tubulin were used as loading controls. Densitometry was calculated as protein expression/expression of housekeeping gene, relative to the control.
The above findings were validated by looking for similar responses in cell lines in vitro in response to VTX exposure. […]
On the technique in general: A western blot detects proteins with antibodies after separation by electrophoresis.

The subject of test [1] is adult patients with newly diagnosed AML. Description: Clinical outcome of VTX-containing induction chemotherapy, clusters by 36-protein classifier (Example 2). It counts as in vivo, human. From the text: Sample Collection and Processing. Peripheral blood (PB) and bone marrow (BM) samples were collected from 818 adult patients with newly diagnosed AML, of which 143 received VTX-containing induction chemotherapy, evaluated at the University of Texas MD Anderson Cancer Center (MDACC) between January 2012 and July 2020. Informed consent was obtained in accordance with the Declaration of Helsinki. Samples were processed and analyzed under an Investigational Review Board (IRB) approved laboratory protocol (Lab 06-0565).
Following data normalization, a cohort of 143 patients that received VTX-containing induction chemotherapy was identified for separate analysis for the purposes of this manuscript. Survival curves were generated by Kaplan-Meier method and survival data was analyzed by multivariate cox regression model. [Refs. 12, 13] Protein expression signatures were identified by hierarchical Progeny clustering. [Ref. 14] Correlations between clustered protein signatures and clinical features were assessed using Fisher's exact test for categorical variables and the Kruskal-Wallis test for continuous variables. Multivariate analysis for survival outcomes OS and RD was performed by Cox regression model. Median protein expression within clusters was compared to median expression in the normal controls to identify significant expression trends with the Wilcoxon test. Protein networks were built using Cytoscape (version 3.9.1) combining literature-based protein interactions queried from the STRING database and proteomic-based interactions inferred from the RPPA data derived from Pearson correlation. [Ref. 11] Predictive classifier models were assembled in Python using the random forest machine learning technique. All bioinformatics and analysis were performed in Rstudio (version 1.3.1093) with R (version 4.1.2).
A cohort of 143 patients that received VTX as a component of induction chemotherapy was identified, of which 27 received VTX combined with high-dose cytarabine (Ara-C), 29 combined with low- or standard-dose Ara-C, […], 6 with high-dose Ara-C and a hypomethylating agent, and 12 combined with targeted therapy (5 FLT3 inhibitors, 5 IDH inhibitors, 2 TP53 inhibitors). In the VTX cohort, 5 patients were not treated at MDACC leaving 138 patients evaluable for outcome and further analysis. Median age at diagnosis was 68 years (range 18-90 years) with median follow-up 58 weeks (range 2-396 weeks). […] Patient demographic, diagnostic labs, (data not shown) treatment, and outcome data was compiled to be analyzed against protein expression data.
Next, recurring patterns of expression were identified across the 36 proteins correlated to OS (FIGS. 3A and 3B) by applying the Progeny clustering algorithm utilizing k-means, and unbiased hierarchical clustering [Ref. 14] identifying three distinct protein expression patterns Cluster 1 (C1; n=41), Cluster 2 (C2; n=63), and Cluster 3 (C3; n=39). Protein expression was somewhat heterogeneous between clusters for several proteins, namely AR, STAT3.pY705, and RAF1.pS338. Expression of CDKN1B and CDKN1B.pS10 were nearly universally high in AML samples relative to the CD34+ controls, albeit phosphorylated CDKN1B was relatively higher in C1 members. While universally low across AMVL samples, ASH2L and MSH6 were relatively lower in the C1 signature as were PRMT1, MAPK14.pT180, HSF1.pS326, EIF4EBP1.pS65, EIF2AK2, and WDR5. The C3 signature was marked by relatively high expression of PrMT1, KMT2D, STAT3.pS727, EP300, and TSC2 and relatively low expression in AKR1C3, YWHAE, TNK1, COPS5, ATF3, SGK1, VTCN1, TNFRSF4, and PEA15.

These results are taken from patent US20240426824A1, “METHODS RELATING TO TREATMENT OF ACUTE MYELOID LEUKEMIA” (BOARD OF REGENTS, THE UNIVERSITY OF TEXAS SYSTEM, priority 2021, published 2024).

SMILES strings stand for the structures.

As for `CC1(C)CCC(CN2CCN(c3ccc(C(=O)NS(=O)(=O)c4ccc(NCC5CCOCC5)c([N+](=O)[O-])c4)c(Oc4cnc5[nH]ccc5c4)c3)CC2)=C(c2ccc(Cl)cc2)C1` [VTX, venetoclax], the Remission rate with adults with AML (cluster 1) is recorded as 61%; in the test on adults with AML (cluster 2) it was 77%; in test [1] (Cluster 1 (C1)), 82%; in test [1] (Cluster 2 (C2)), 70%; in test [1] (Cluster 3 (C3)) it was 50%. In addition, the “relapse risk (RR) at 1-yr” value with adults with AML (cluster 1) worked out at 45%; with adults with AML (cluster 2), 18%. Also, the figures for the “estimated 3-yr overall survival” value in the test with adults with AML (cluster 1 (n=102)) and in the test with adults with AML (cluster 2 (n=41)) were 27% and 66%, respectively. The “reduction in the expression of PKM2” value in the test on MV4-11 VTX-sen cell line is recorded as over 50%. The figures for the “median OS” value in test [1] (C1), in test [1] (C2) and in test [1] (C3) were 182.7 weeks, 55.1 weeks and 35.7 weeks, respectively. Besides, the relapse rate in test [1] (C1, patients that achieved remission (n=32)) is 21.9%; in test [1] (C2, patients that achieved remission (n=40)), 42.5%; in test [1] (C3, patients that achieved remission (n=18)), 66.7%. Also, the median remission duration was 129 weeks in test [1] (C2) and 39 weeks in test [1] (C3). The “Remission (CR/CRi) achieved” value in test [1] (all evaluable patients (138), n=90) turned out to be 65%. Further, in test [1] (of 90 patients in remission, n=36), the “relapsed, of patients in remission” value is 40%.
